Experiments:
[1] = test system: IL-4 induced STAT6 phosphorylation in THP-1 human monocytic cells; experiment: Cellular JAK potency assay, THP-1
[2] = test system: IL-13 induced STAT6 phosphorylation in BEAS-2B human lung epithelial cells; experiment: AlphaScreen cellular JAK potency assay, BEAS-2B
JAK1 = JAK1 (Homo sapiens (Human), UniProt P23458); experiment: LanthaScreen JAK biochemical assay (JAK1); conditions: for Ki: read-out: JAK 1 (pKi) (converted)
JAK2 = JAK2 (Homo sapiens (Human), UniProt O60674); experiment: LanthaScreen JAK biochemical assay (JAK2); conditions: for Ki: read-out: JAK 2 (pKi) (converted)
Sequence of JAK2 (O60674 whole entry): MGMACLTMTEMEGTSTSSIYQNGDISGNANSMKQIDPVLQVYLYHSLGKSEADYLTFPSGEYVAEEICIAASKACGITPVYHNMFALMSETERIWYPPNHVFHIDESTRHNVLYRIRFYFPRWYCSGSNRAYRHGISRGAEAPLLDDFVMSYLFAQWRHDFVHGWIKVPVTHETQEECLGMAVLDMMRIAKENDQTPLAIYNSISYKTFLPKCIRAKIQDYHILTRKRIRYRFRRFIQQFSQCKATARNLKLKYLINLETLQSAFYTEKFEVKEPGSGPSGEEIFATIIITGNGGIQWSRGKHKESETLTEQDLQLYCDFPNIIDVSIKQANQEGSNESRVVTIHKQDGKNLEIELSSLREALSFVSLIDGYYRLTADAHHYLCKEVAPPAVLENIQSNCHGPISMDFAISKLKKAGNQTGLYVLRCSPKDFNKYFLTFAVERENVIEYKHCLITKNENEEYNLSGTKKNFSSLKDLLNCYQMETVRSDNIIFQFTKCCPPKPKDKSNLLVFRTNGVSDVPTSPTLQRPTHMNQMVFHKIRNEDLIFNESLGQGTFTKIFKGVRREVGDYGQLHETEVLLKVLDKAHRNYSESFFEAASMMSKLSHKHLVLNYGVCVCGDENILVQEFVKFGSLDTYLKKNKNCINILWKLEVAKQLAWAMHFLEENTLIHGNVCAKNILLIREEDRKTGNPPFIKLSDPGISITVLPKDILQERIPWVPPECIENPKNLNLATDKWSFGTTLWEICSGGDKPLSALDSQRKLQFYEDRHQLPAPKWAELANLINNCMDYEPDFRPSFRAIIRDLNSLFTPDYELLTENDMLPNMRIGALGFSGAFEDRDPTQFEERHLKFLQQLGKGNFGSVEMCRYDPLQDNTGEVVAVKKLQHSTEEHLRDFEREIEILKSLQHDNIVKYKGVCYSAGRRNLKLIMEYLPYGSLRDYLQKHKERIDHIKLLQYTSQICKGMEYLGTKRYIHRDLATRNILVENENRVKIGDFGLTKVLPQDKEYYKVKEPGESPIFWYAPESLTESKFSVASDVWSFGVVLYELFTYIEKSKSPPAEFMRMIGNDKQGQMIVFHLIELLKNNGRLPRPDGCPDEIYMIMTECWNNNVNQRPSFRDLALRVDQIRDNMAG

[3] = IL-4 induced STAT6 phosphorylation, THP-1 cells
[4] = IL-13 induced STAT6 phosphorylation, BEAS-2B cells
[5] = Homo sapiens, THP-1, read-out: THP-1 IL4 pIC50 (converted)
[6] = Homo sapiens, BEAS-2B, read-out: BEAS2B pIC50 (converted)
[7] = THP-1 cells, IL-4 induced STAT6 phosphorylation
[8] = BEAS-2B cells, IL-13 induced STAT6 phosphorylation

Sequence of JAK1 (P23458 whole entry): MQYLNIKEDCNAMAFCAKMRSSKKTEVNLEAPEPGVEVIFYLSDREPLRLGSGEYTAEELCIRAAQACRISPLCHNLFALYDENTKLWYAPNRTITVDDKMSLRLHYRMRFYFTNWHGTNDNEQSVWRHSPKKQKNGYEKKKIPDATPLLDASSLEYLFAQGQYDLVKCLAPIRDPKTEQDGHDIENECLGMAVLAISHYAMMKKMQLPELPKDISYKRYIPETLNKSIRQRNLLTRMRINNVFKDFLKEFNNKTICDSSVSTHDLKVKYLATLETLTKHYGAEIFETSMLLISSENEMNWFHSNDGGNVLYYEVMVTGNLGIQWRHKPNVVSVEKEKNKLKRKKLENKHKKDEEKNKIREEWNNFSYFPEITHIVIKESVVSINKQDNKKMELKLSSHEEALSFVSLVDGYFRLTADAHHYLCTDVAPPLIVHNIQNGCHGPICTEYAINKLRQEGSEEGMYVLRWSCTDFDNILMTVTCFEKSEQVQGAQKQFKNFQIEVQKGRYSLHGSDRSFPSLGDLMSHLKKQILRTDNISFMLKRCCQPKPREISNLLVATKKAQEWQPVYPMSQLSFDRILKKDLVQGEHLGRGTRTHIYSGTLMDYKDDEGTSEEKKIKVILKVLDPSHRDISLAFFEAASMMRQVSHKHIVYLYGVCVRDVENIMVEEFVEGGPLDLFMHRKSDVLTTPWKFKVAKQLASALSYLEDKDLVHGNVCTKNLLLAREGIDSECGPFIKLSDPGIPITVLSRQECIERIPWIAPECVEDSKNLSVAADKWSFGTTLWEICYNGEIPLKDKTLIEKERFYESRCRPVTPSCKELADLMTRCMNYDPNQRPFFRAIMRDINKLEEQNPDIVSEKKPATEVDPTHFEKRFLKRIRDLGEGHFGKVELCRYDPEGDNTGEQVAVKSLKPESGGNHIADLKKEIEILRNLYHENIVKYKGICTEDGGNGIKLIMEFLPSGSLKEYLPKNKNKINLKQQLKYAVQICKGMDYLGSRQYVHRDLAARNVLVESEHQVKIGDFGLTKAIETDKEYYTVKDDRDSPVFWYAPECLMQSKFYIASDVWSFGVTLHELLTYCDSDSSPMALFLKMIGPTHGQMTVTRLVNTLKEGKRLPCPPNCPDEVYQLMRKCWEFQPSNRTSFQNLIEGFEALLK

SMILES | THP-1 IL4 pIC50 [1, 3] | BEAS2B pIC50 [2, 4] | JAK 1 (pKi) (JAK1) | JAK 2 (pKi) (JAK2) | IC50 [1, 5] [nM] | IC50 [2, 6] [nM] | Ki (JAK1) [nM] | Ki (JAK2) [nM] | THP-1 IL4 pIC50 [1, 7] | BEAS2B pIC50 [2, 8]
Cc1cc(Nc2cc3ncccc3c(N[C@@H]3C[C@H]4CC[C@@H](C3)N4Cc3ccncc3)n2)n[nH]1 [Example 1-17] | B (B represents a pEC50 value between 6.7 and 7.5 (EC50 between 200 nM and 32 nM)) | B (B represents a pEC50 value between 6.7 and 7.5 (EC50 between 200 nM and 32 nM)) | B (B represents a pKi value between 9 and 10 (Ki between 1 nM and 0.1 nM)) | B (B represents a pKi value between 9 and 10 (Ki between 1 nM and 0.1 nM)) |  |  |  |  |  | 
Cc1cc(Nc2cc3ncccc3c(N[C@@H]3C[C@H]4CC[C@@H](C3)N4C(C)CC#N)n2)n[nH]1 (stereo partly shown) [Example 1-21] | A (A represents a pEC50 value≥7.5 (EC50≤32 nM)) | B (B represents a pEC50 value between 6.7 and 7.5 (EC50 between 200 nM and 32 nM)) | B (B represents a pKi value between 9 and 10 (Ki between 1 nM and 0.1 nM)) | B (B represents a pKi value between 9 and 10 (Ki between 1 nM and 0.1 nM)) |  |  |  |  |  | 
Cc1cc(Nc2cc3ncccc3c(N[C@@H]3C[C@H]4CC[C@@H](C3)N4CC(C)C#N)n2)n[nH]1 (stereo partly shown) [Example 1-23] | A (A represents a pEC50 value≥7.5 (EC50≤32 nM)) | A (A represents a pEC50 value≥7.5 (EC50≤32 nM)) | A (A represents a pKi value≥10 (Ki≤0.1 nM)) | A (A represents a pKi value≥10 (Ki≤0.1 nM)) |  |  |  |  |  | 
Cc1cc(Nc2cc3ncccc3c(N[C@@H]3C[C@H]4CCC[C@@H](C3)N4CCC#N)n2)n[nH]1 [Example 1-31] | A (A represents a pEC50 value≥7.5 (EC50≤32 nM)) | A (A represents a pEC50 value≥7.5 (EC50≤32 nM)) | A (A represents a pKi value≥10 (Ki≤0.1 nM)) | A (A represents a pKi value≥10 (Ki≤0.1 nM)) |  |  |  |  |  | 
Cc1cc(Nc2cc3ncccc3c(N[C@@H]3C[C@H]4CCC[C@@H](C3)N4CCF)n2)n[nH]1 [Example 1-39] | A (A represents a pEC50 value≥7.5 (EC50≤32 nM)) | A (A represents a pEC50 value≥7.5 (EC50≤32 nM)) | B (B represents a pKi value between 9 and 10 (Ki between 1 nM and 0.1 nM)) | B (B represents a pKi value between 9 and 10 (Ki between 1 nM and 0.1 nM)) |  |  |  |  |  | 
Cc1cc(Nc2cc3ncccc3c(N[C@@H]3C[C@H]4CCC[C@@H](C3)N4CCCF)n2)n[nH]1 [Example 1-40] | A (A represents a pEC50 value≥7.5 (EC50≤32 nM)) | A (A represents a pEC50 value≥7.5 (EC50≤32 nM)) | B (B represents a pKi value between 9 and 10 (Ki between 1 nM and 0.1 nM)) | B (B represents a pKi value between 9 and 10 (Ki between 1 nM and 0.1 nM)) |  |  |  |  |  | 
Cc1cc(Nc2cc3ncccc3c(N[C@@H]3C[C@H]4CCC[C@@H](C3)N4CC(C)C)n2)n[nH]1 [Example 1-43] | A (A represents a pEC50 value≥7.5 (EC50≤32 nM)) | A (A represents a pEC50 value≥7.5 (EC50≤32 nM)) | B (B represents a pKi value between 9 and 10 (Ki between 1 nM and 0.1 nM)) | B (B represents a pKi value between 9 and 10 (Ki between 1 nM and 0.1 nM)) |  |  |  |  |  | 
Cc1cc(Nc2cc3ncccc3c(N[C@@H]3C[C@H]4CCC[C@@H](C3)N4CCC(F)(F)F)n2)n[nH]1 [Example 1-44] | A (A represents a pEC50 value≥7.5 (EC50≤32 nM)) | A (A represents a pEC50 value≥7.5 (EC50≤32 nM)) | B (B represents a pKi value between 9 and 10 (Ki between 1 nM and 0.1 nM)) | B (B represents a pKi value between 9 and 10 (Ki between 1 nM and 0.1 nM)) |  |  |  |  |  | 
CCC(C)OC(=O)N1[C@@H]2CCC[C@H]1C[C@H](Nc1nc(Nc3cc(C)[nH]n3)cc3ncccc13)C2 (stereo partly shown) [Example 3-12] |  | B (B represents a pEC50 value between 6.7 and 7.5 (EC50 between 200 nM and 32 nM)) | B (B represents a pKi value between 9 and 10 (Ki between 1 nM and 0.1 nM)) | B (B represents a pKi value between 9 and 10 (Ki between 1 nM and 0.1 nM)) |  |  |  |  |  | 
Cc1cc(Nc2cc3ncccc3c(N[C@@H]3C[C@H]4CC[C@@H](C3)N4S(=O)(=O)C(C)C)n2)n[nH]1 [Example 4-2] |  |  |  |  | < 31.6 | < 31.6 | 0.1 to 1 | 0.1 to 1 |  | 
CCN1CC(S(=O)(=O)N2[C@@H]3CC[C@H]2C[C@H](Nc2nc(Nc4cc(C)[nH]n4)cc4ncccc24)C3)C1 [Example 4-10] |  |  |  |  | 31.6 to 200 | 31.6 to 200 | 0.1 to 1 | 0.1 to 1 |  | 
Cc1cc(Nc2cc3ncccc3c(N[C@@H]3C[C@H]4CC[C@@H](C3)N4S(=O)(=O)c3cncc(F)c3)n2)n[nH]1 [Example 4-15] |  |  |  |  | < 31.6 | < 31.6 | 0.1 to 1 | 0.1 to 1 |  | 
Cc1cc(Nc2cc3ncccc3c(N[C@@H]3C[C@H]4CCC[C@@H](C3)N4S(=O)(=O)Cc3cccnc3)n2)n[nH]1 [Example 4-26] | B (B represents a pEC50 value between 6.7 and 7.5 (EC50 between 200 nM and 32 nM)) | B (B represents a pEC50 value between 6.7 and 7.5 (EC50 between 200 nM and 32 nM)) | B (B represents a pKi value between 9 and 10 (Ki between 1 nM and 0.1 nM)) | B (B represents a pKi value between 9 and 10 (Ki between 1 nM and 0.1 nM)) |  |  |  |  |  | 
COc1ccc2c(N[C@@H]3C[C@H]4CC[C@@H](C3)N4C(=O)C3(C(F)(F)F)CC3)nc(Nc3cc(C)[nH]n3)cc2n1 [Example 5-6] |  |  |  |  | < 31.6 | < 31.6 | 0.1 to 1 | 0.1 to 1 |  | 
COc1ccc2c(N[C@@H]3C[C@H]4CCC[C@@H](C3)N4CCC#N)nc(Nc3cc(C)[nH]n3)cc2n1 [Example 5-10] | A (A represents a pEC50 value≥7.5 (EC50≤32 nM)) | A (A represents a pEC50 value≥7.5 (EC50≤32 nM)) | A (A represents a pKi value≥10 (Ki≤0.1 nM)) | A (A represents a pKi value≥10 (Ki≤0.1 nM)) |  |  |  |  |  | 
Cc1cc(Nc2cc3nc(CO)ccc3c(N[C@@H]3C[C@H]4CC[C@@H](C3)N4CCCF)n2)n[nH]1 [Example 5-14] | B (B represents a pEC50 value between 6.7 and 7.5 (EC50 between 200 nM and 32 nM)) | B (B represents a pEC50 value between 6.7 and 7.5 (EC50 between 200 nM and 32 nM)) | B (B represents a pKi value between 9 and 10 (Ki between 1 nM and 0.1 nM)) | B (B represents a pKi value between 9 and 10 (Ki between 1 nM and 0.1 nM)) |  |  |  |  |  | 
Cc1cc(Nc2cc3nc(CN4CCOCC4)ccc3c(N[C@@H]3C[C@H]4CCC[C@@H](C3)N4S(C)(=O)=O)n2)n[nH]1 [Example 5-22] | B (B represents a pEC50 value between 6.7 and 7.5 (EC50 between 200 nM and 32 nM)) | A (A represents a pEC50 value≥7.5 (EC50≤32 nM)) | A (A represents a pKi value≥10 (Ki≤0.1 nM)) | A (A represents a pKi value≥10 (Ki≤0.1 nM)) |  |  |  |  |  | 
Cc1cnc2cc(Nc3cc(C)[nH]n3)nc(N[C@@H]3C[C@H]4CC[C@@H](C3)N4Cc3ccncc3)c2c1 [Example 6-2] |  |  | B (B represents a pKi value between 9 and 10 (Ki between 1 nM and 0.1 nM)) | B (B represents a pKi value between 9 and 10 (Ki between 1 nM and 0.1 nM)) |  |  |  |  | A (A represents a pEC50 value≥7.5 (EC50≤32 nM)) | B (B represents a pEC50 value between 6.7 and 7.5 (EC50 between 200 nM and 32 nM))
COc1cnc2cc(Nc3cc(C)[nH]n3)nc(N[C@@H]3C[C@H]4CC[C@@H](C3)N4CCC(F)(F)F)c2c1 [Example 6-15] |  |  | B (B represents a pKi value between 9 and 10 (Ki between 1 nM and 0.1 nM)) | B (B represents a pKi value between 9 and 10 (Ki between 1 nM and 0.1 nM)) |  |  |  |  | A (A represents a pEC50 value≥7.5 (EC50≤32 nM)) | A (A represents a pEC50 value≥7.5 (EC50≤32 nM))
COc1cnc2cc(Nc3cc(C)[nH]n3)nc(N[C@@H]3C[C@H]4CC[C@@H](C3)N4Cc3ccncc3)c2c1 [Example 6-24] |  |  | B (B represents a pKi value between 9 and 10 (Ki between 1 nM and 0.1 nM)) | B (B represents a pKi value between 9 and 10 (Ki between 1 nM and 0.1 nM)) |  |  |  |  | B (B represents a pEC50 value between 6.7 and 7.5 (EC50 between 200 nM and 32 nM)) | B (B represents a pEC50 value between 6.7 and 7.5 (EC50 between 200 nM and 32 nM))
Cc1cc(Nc2cc3ncc(S(C)(=O)=O)cc3c(N[C@@H]3C[C@H]4CCC[C@@H](C3)N4Cc3ccncc3)n2)n[nH]1 [Example 6-60] |  |  | A (A represents a pKi value≥10 (Ki≤0.1 nM)) | A (A represents a pKi value≥10 (Ki≤0.1 nM)) |  |  |  |  |  | B (B represents a pEC50 value between 6.7 and 7.5 (EC50 between 200 nM and 32 nM))
